The source of these data is ChEMBL document CHEMBL1944632, “Synthesis, anti-HBV activity and renal cell toxicity evaluation of mixed phosphonate prodrugs of adefovir” (Eur J Med Chem, 2012).

SMILES strings stand for the structures.

The nature of data set [1]: Selectivity index, ratio of CC50 for HepG2(2.2.15) infected with HBV DNA to EC50 for Hepatitis B virus infected in human HepG2(2.2.15) cells.
Data set [2] is described as follows: Cytotoxicity against human HK2 cells by MTT assay. Type of data set: cell-based, HK-2.
Data set [3] in a line: Chemical stability of the compound assessed as drug decomposition at 1 mM in phosphate buffer at pH 2 after 24 hrs by HPLC analysis. Type of data set: physicochemical. The conditions noted are these: read-out: Drug degradation.
A short description of data set [4]: Cytotoxicity against human HepG2(2.2.15) cells infected with HBV DNA. Type of data set: cell-based.
A short description of data set [5]: Nephrotoxicity in human HK2 cells assessed as LDH release at 10 uM measured after 24 hrs. The data set is classed as toxicity, cell-based. The conditions noted are these: hk-2, 24 h.
Data set [6] in a line: Chemical stability of the compound assessed as drug decomposition at 1 mM in phosphate buffer at pH 7.4 after 24 hrs by HPLC analysis. The data set is classed as physicochemical. As to conditions: read-out: Drug degradation.
Data set [7] is described as follows: Nephrotoxicity in human HK2 cells assessed as LDH release at 100 uM measured after 24 hrs. The data set is classed as toxicity, cell-based. As to conditions: hk-2, 24 h.
For data set [8], the system named is Hepatitis B virus. Briefly: Antiviral activity against Hepatitis B virus infected in human HepG2(2.2.15) cells assessed as inhibition of viral replication incubated for 2 days followed by wash out measured after 10 days by RT-PCR analysis. Type of data set: functional, organism-based.
Data set [9] in a line: Nephrotoxicity in human HK2 cells assessed as LDH release at 1 uM measured after 24 hrs. The conditions noted are these: hk-2, 24 h. The data set is classed as toxicity, cell-based.
Data set [10] in a line: Half life in rat plasma at 0.2 mg after 24 hrs by HPLC analysis. The data set is classed as ADME.
In data set [11] the test system is Hepatitis B virus. In words: Ratio of adefovir dipivoxil to compound EC50 for Hepatitis B virus infected in human HepG2(2.2.15) cells assessed as inhibition of viral replication incubated for 2 days followed by wash out measured after 10 days by RT-PCR analysis. The data set is classed as functional.
Data set [12] in a line: Ratio of adefovir dipivoxil SI to compound SI for ratio of CC50 for HepG2(2.2.15) infected with HBV DNA to EC50 for Hepatitis B virus infected in human HepG2(2.2.15) cells. The data set is classed as functional.

With `CC[C@H](C)[C@H](N)C(=O)OCCOP(=O)(COCCn1cnc2c(N)ncnc21)OCCCOC(=O)C(C)c1cccc(C(=O)c2ccccc2)c1` (some centres not stated), the “Ratio CC50/EC50” value in data set [1] came to 881.92. The CC50 was found to be 768 µM in data set [2] and 644 µM in data set [4]. Also, the degraded at 24 h, 1000 µM is 14.9% in data set [3] and 12.5% in data set [6]. Moreover, the Activity in data set [5] worked out at 36.92%; in data set [7], 43.51%; in data set [9], 37.85%. For the same molecule, the EC50 in [8] worked out at 0.73 µM.
`CC(C(=O)OCCCOP(=O)(COCCn1cnc2c(N)ncnc21)OCCCSC(=O)[C@@H](N)C(C)C)c1cccc(C(=O)c2ccccc2)c1` (some centres not stated): the “Ratio CC50/EC50” value in data set [1] came to 39.01. Besides, the midpoint of cytotoxicity in data set [4], the CC50, lay at 1050 µM. In [8], the EC50 was 26.9 µM.
On to `CC[C@H](C)[C@H](N)C(=O)SCCCOP(=O)(COCCn1cnc2c(N)ncnc21)OCCCOC(=O)C(C)c1cccc(C(=O)c2ccccc2)c1` (some centres not stated), for which, in [1], the “Ratio CC50/EC50” value is 22.29. This molecule also came in with a CC50 in [4] of 1000 µM. Also, the EC50 in data set [8] was determined as 44.9 µM.
For the molecule `CC(C(=O)OCCCOP(=O)(COCCn1cnc2c(N)ncnc21)OCCCSC(=O)[C@@H](N)Cc1ccccc1)c1cccc(C(=O)c2ccccc2)c1` (some centres not stated), in data set [1], the “Ratio CC50/EC50” value came out at 33.47. The molecule further returned a CC50 in data set [4] of 1000 µM. Also, the EC50 in data set [8] was determined as 29.8 µM.
Take `CC(C)Cc1ccc(C(C)C(=O)OCCCOP(=O)(COCCn2cnc3c(N)ncnc32)OCCOC(=O)[C@@H](N)C(C)C)cc1` (some centres not stated): in data set [1], the “Ratio CC50/EC50” value amounted to 65.56. Further, the values for the CC50 in data set [2] and in data set [4] were over 1000 µM and 577 µM, respectively. This molecule had a half-life in [10] of 1.5 h. Moreover, the degraded at 24 h, 1000 µM amounted to 9.6% in data set [3] and 7.8% in [6]. Also, the Activity in data set [5] was 36.25%; in data set [7], 36.87%; in data set [9], 35.41%. In addition, in [8], the EC50 is 8.8 µM.
With `CC[C@H](C)[C@H](N)C(=O)OCCOP(=O)(COCCn1cnc2c(N)ncnc21)OCCCOC(=O)C(C)c1ccc(CC(C)C)cc1` (some centres not stated), the “Ratio CC50/EC50” value in data set [1] turned out to be 39.11. Moreover, the CC50 in [2] is over 1000 µM; in data set [4], 488 µM. This molecule also gave a half-life in data set [10] of 0.75 h. The degraded at 24 h, 1000 µM stood at 12.7% in data set [3] and 9.1% in [6]. Also, the Activity in data set [5] is on record as 36.67%; in data set [7] it was 40.6%; in data set [9] it was 36.25%. Moreover, the EC50 in [8] worked out at 12.5 µM.
Take `CC(C)Cc1ccc(C(C)C(=O)OCCCOP(=O)(COCCn2cnc3c(N)ncnc32)OCCCSC(=O)[C@@H](N)C(C)C)cc1` (some centres not stated): in data set [1], the “Ratio CC50/EC50” value stood at 5.37. In [4], this molecule gave a CC50 of 122 µM. For the same molecule, in [8], the EC50 was determined as 22.7 µM.
With `CC[C@H](C)[C@H](N)C(=O)SCCCOP(=O)(COCCn1cnc2c(N)ncnc21)OCCCOC(=O)C(C)c1ccc(CC(C)C)cc1` (some centres not stated), the “Ratio CC50/EC50” value in data set [1] came to 3.14. The molecule also yielded a CC50 in [4] of 157 µM. The EC50 in data set [8] stood at 50 µM.
Regarding `CC[C@H](C)[C@H](N)C(=O)OCCOP(=O)(COCCn1cnc2c(N)ncnc21)OCCCOC(=O)C(C)c1ccc(-c2ccccc2)c(F)c1` (some centres not stated), the “Ratio CC50/EC50” value in [1] is 299.69. Moreover, the results for the CC50 in data set [2] and in data set [4] were over 1000 µM and 677 µM, respectively. Besides, the half-life in [10] was 3.5 h. Also, the degraded at 24 h, 1000 µM in [3] amounted to 15.3%; in data set [6], 12.6%. Moreover, the Activity in data set [5] is on record as 36.95%; in [7] it was 40.52%; in [9] it was 35.89%. The EC50 in data set [8] worked out at 2.26 µM.
In the case of `CC(C(=O)OCCCOP(=O)(COCCn1cnc2c(N)ncnc21)OCCOC(=O)[C@@H](N)Cc1ccccc1)c1ccc(-c2ccccc2)c(F)c1` (some centres not stated), the “Ratio CC50/EC50” value in data set [1] came out at 170.21. Further, the CC50 in data set [2] is 906 µM; in [4], 568 µM. In data set [10], this molecule had a half-life of 2.05 h. Also, the degraded at 24 h, 1000 µM in data set [3] amounted to 14.7%; in data set [6], 10.3%. In addition, the figures for the Activity in [5], in data set [7] and in data set [9] were 35.95%, 42.71% and 34.68%, respectively. The EC50 in data set [8] turned out to be 3.34 µM.
For the molecule `CC[C@H](C)[C@H](N)C(=O)SCCCOP(=O)(COCCn1cnc2c(N)ncnc21)OCCCOC(=O)C(C)c1ccc(-c2ccccc2)c(F)c1` (some centres not stated), the “Ratio CC50/EC50” value in [1] came to 9.88. The molecule also registered a CC50 in data set [4] of 363 µM. For the same molecule, the EC50 in data set [8] was determined as 36.7 µM.
With `CC(C(=O)OCCCOP(=O)(COCCn1cnc2c(N)ncnc21)OCCCSC(=O)[C@@H](N)Cc1ccccc1)c1ccc(-c2ccccc2)c(F)c1` (some centres not stated), the “Ratio CC50/EC50” value in [1] was found to be 4.12. The molecule further registered a cytotoxic concentration (CC50) in data set [4] of 202 µM. The EC50 in data set [8] came to 48.9 µM.
As for `CC(C(=O)OCCCOP(=O)(COCCn1cnc2c(N)ncnc21)OCCOC(=O)[C@@H](N)C(C)C)c1cccc(C(=O)c2ccccc2)c1` (some centres not stated), in [1], the “Ratio CC50/EC50” value came to 1697.64. In addition, the CC50 is 840 µM in data set [2] and 866 µM in data set [4]. For the same molecule, the “Ratio EC50” value in data set [11] is 2. Besides, in [10], the half-life was 2.75 h. Further, the degraded at 24 h, 1000 µM in [3] turned out to be 11.2%; in [6] it was 8.3%. Moreover, in data set [12], the Ratio is 4. Further, the Activity in [5] is listed as 38.72%; in [7], 44.9%; in data set [9] it was 37.63%. For the same molecule, the EC50 in [8] is 0.51 µM.
Take `CC(C)(C)C(=O)OCOP(=O)(COCCn1cnc2c(N)ncnc21)OCOC(=O)C(C)(C)C` [ADEFOVIR DIPIVOXIL]: the “Ratio CC50/EC50” value in [1] turned out to be 490.73. Also, the CC50 was 488 µM in [2] and 471 µM in data set [4]. In [10], this molecule had a half-life of 0.52 h. Also, the degraded at 24 h, 1000 µM in data set [3] amounted to 42.5%; in [6], 39.1%. Also, the Activity was 47.49% in [5], 50.02% in data set [7] and 42.32% in data set [9]. In addition, the concentration for a half-maximal effect (EC50) in [8] is 0.96 µM.
